# Data taken from publication PMC12903969, “Discovery of a Novel and Potent Kir4.1 Inhibitor as a Safe and Rapid‐Onset Antidepressant Agent in Mice” (Advanced Science, 2025).
# Like-named read-outs stand apart in the source and are kept apart here.
# Assays:
# [1] = test system: MDA-MB-468 breast cancer cells; test: Cytotoxicity test (CCK-8); assay type: cell-based; conditions: read-out: IC50 ± SD (μM) for MDA-MB-468 Inhibition
# Protocol: Cytotoxicity of all the tested compounds was determined using the cell counting kit‐8 (CCK‐8) assay kit (Beyotime, Shanghai, China). Briefly, MDA‐MB‐468 was cultured in L15 medium and plated in 96‐well plates at a density of 12,000 cells per well for 24 h at 37 °C in a 5% CO2 incubator. The tested compounds were dissolved in DMSO and diluted with culture medium (DMSO final concentration < 0.4%). Then the cells were treated with compounds (0.41, 1.23, 3.70, 11.11, 33.33, 100.00 µM) for 48 h. After treatments, removal of the supernatant liquor, 100 µL of new media diluted CCK‐8 solution (10% CCK‐8) was added into each well and incubated at 37 °C for 2 h. The absorbance of the mixture was directly measured at 450 nm. The results are presented as a percentage of the control.
# Kir4.1 = biological target: T1, Kir4.1 (Homo sapiens, UniProt P78508); test: Whole-cell patch clamp, Kir4.1 currents in transfected CHO-K1 cells; assay type: cell-based; conditions: for inhibition at 0.5 µM: CHO-K1, 0.5 μM; for inhibition at 1 µM: CHO-K1, 1 μM; for inhibition at 10 µM: CHO-K1, 10 μM
# T1 construct: host or cells: CHO-K1
# T1 sequence (P78508 1-379): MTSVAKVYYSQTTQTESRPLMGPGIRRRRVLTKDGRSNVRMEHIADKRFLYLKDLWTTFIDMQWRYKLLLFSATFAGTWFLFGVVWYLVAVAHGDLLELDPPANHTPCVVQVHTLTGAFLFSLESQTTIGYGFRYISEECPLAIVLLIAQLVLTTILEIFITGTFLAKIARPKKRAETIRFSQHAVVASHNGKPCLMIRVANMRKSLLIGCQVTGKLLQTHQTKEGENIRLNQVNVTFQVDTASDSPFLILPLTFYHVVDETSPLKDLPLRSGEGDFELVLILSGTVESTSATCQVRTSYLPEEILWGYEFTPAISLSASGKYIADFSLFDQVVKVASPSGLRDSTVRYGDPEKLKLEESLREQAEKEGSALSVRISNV
# Protocol: Plasmids encoding WT human potassium channels Kir1.1, Kir2.1, Kir2.2, Kir4.1, and Kir4.2 were obtained from the Beijing Genomics Institute. All point mutations were constructed using the QuickChange II Site‐Directed Mutagenesis Kit (Stratagene) and subsequently verified by sequencing.
# CHO‐K1 cells were maintained in DMEM/F12 growth medium containing 10% fetal bovine serum. Plasmids encoding the target genes (3600 ng) and enhanced green fluorescent protein (400 ng) were cotransfected into cells using Lipofectamine 2000 (Invitrogen) in accordance with the manufacturer's instructions. Cells were seeded onto poly‐d‐lysine (PDL)‐coated glass coverslips 1 h prior to electrophysiological recordings. All cells were cultured under standard conditions of 5% CO2 at 37 °C.
# Whole‐cell patch‐clamp recordings were obtained either in transiently transfected CHO‐K1 cells or in primary cultured astrocytes at room temperature using standard patch‐clamp techniques with an Axopatch‐700B amplifier (Axon Instruments). The signals were filtered at 2 kHz and sampled at 20 kHz using the Digidata 1440A interface (Axon Instruments). The resistance of borosilicate glass pipettes was typically 2–4 MΩ when filled with the internal solution. Drug application was facilitated using a BPS perfusion system (ALA Scientific Instruments). Macroscopic currents generated by expressed potassium channels were recorded under the voltage‐clamp conditions with an internal pipette solution composed of (in mM): 140 KCl, 5 NaCl, 1 CaCl2, 1 MgCl2, 10 HEPES, and 10 EGTA, pH 7.2 adjusted with KOH. The external solution contained (in mM): 140 NaCl, 5 KCl, 2 CaCl2, 1 MgCl2, 10 glucose, and 10 HEPES, pH 7.4 adjusted with NaOH. Currents were elicited with a hyperpolarized voltage at −120 mV from the holding potential of −80 mV, followed by a ramp voltage depolarizing to +50 mV. Astrocytic resting membrane potentials were recorded under current‐clamp conditions (I = 0 pA) using standard internal and external solutions, determined immediately after achieving whole‐cell mode.
# [2] = Homo sapiens, MDA-MB-468, MDA-MB-468 breast cancer cells
# [3] = +50 mV, read-out: Kir4.1 Inhibition ± SD (%) at 1 μM, +50 mV
# [4] = -120 mV, read-out: Kir4.1 Inhibition ± SD (%) at 1 μM, -120 mV
# [5] = +50 mV, read-out: Kir4.1 Inhibition ± SD (%) at 10 μM, +50 mV
# [6] = -120 mV, read-out: Kir4.1 Inhibition ± SD (%) at 10 μM, -120 mV
SMILES,"IC50 [1, 2]","inhibition at 0.5 µM (Kir4.1; +50 mV, read-out: Kir4.1 Inhibition ± SD (%) at 0.5 μM, +50 mV)","inhibition at 0.5 µM (Kir4.1; -120 mV, read-out: Kir4.1 Inhibition ± SD (%) at 0.5 μM, -120 mV)",inhibition at 1 µM (Kir4.1; [3]),inhibition at 1 µM (Kir4.1; [4]),inhibition at 10 µM (Kir4.1; [5]),inhibition at 10 µM (Kir4.1; [6]),"Kir4.1 Inhibition ± SD (%) at 10 μM, +50 mV (Kir4.1; +50 mV, 10 µM)","Kir4.1 Inhibition ± SD (%) at 10 μM, -120 mV (Kir4.1; -120 mV)",IC50 ([1]; MDA-MB-468 breast cancer cells),"Kir4.1 Inhibition ± SD (%) at 1 μM, +50 mV (Kir4.1; +50 mV)","Kir4.1 Inhibition ± SD (%) at 1 μM, -120 mV (Kir4.1; -120 mV)","Kir4.1 Inhibition ± SD (%) at 10 μM, +50 mV (Kir4.1; +50 mV)"
"c1ccc2c(c1)oc1ccc(Nc3ccnc(NCCCN4CCOCC4)c3)cc12 [JX3219, N^4-(dibenzo[b,d]furan-2-yl)-N^2-(3-morpholinopropyl)pyridine-2,4-diamine]",8.74 ± 0.36 µM,49.6 ± 6.47%,40.2 ± 4.35%,86.1 ± 3.36%,78.7 ± 8.16%,97.44 ± 0.6%,92.6 ± 5.66%,,,,,,
"c1cc(NCCCN2CCOCC2)nc(Nc2ccc3oc4ccccc4c3c2)c1 [JX3220, N^2-(dibenzo[b,d]furan-2-yl)-N^6-(3-morpholinopropyl)pyridine-2,6-diamine]",8.74 ± 0.36 µM,,,,,2.61 ± 1.87%,3.98 ± 1.6%,,,,,,
"c1ccc2c(c1)oc1ccc(Nc3cncc(NCCCN4CCOCC4)c3)cc12 [JX3221, N^3-(dibenzo[b,d]furan-2-yl)-N^5-(3-morpholinopropyl)pyridine-3,5-diamine]",21.2 ± 1.06 µM,,,-2.41 ± 3.2%,-4.84 ± 3.28%,96.6 ± 1.14%,90.4 ± 5.72%,,,,,,
"c1ccc2c(c1)oc1ccc(Nc3cc(NCCCN4CCOCC4)ncn3)cc12 [JX3222, N^4-(dibenzo[b,d]furan-2-yl)-N^6-(3-morpholinopropyl)pyrimidine-4,6-diamine]",44 ± 1.48 µM,,,5.55 ± 2.74%,-0.94 ± 6.65%,87.3 ± 6.4%,71.1 ± 6.03%,,,,,,
"c1ccc2c(c1)oc1ccc(Nc3cncc(NCCCN4CCOCC4)n3)cc12 [JX3223, N^2-(dibenzo[b,d]furan-2-yl)-N^6-(3-morpholinopropyl)pyrazine-2,6-diamine]",23 ± 3.41 µM,,,,,,,7.01 ± 4.11%,6.62 ± 0.29%,,,,
"c1ccc2c(c1)oc1ccc(Nc3cncc(NCCCN4CCOCC4)n3)cc12 [JX3224, N^2-(dibenzo[b,d]furan-2-yl)-N^6-(3-morpholinopropyl)pyrazine-2,6-diamine]",,,,29.1 ± 11.8%,11.3 ± 5.07%,,,96.66 ± 1.05%,87.90 ± 2.73%,21.6 ± 0.8 µM,,,
"c1ccc2c(c1)oc1ccc(Nc3cnc(NCCCN4CCOCC4)cn3)cc12 [JX3225, N^2-(dibenzo[b,d]furan-2-yl)-N^5-(3-morpholinopropyl)pyrazine-2,5-diamine]",31.6 ± 5.27 µM,,,3.73 ± 5.09%,8.36 ± 3.94%,96.9 ± 1.28%,94.3 ± 2.6%,,,,,,
"c1ccc2c(c1)oc1ccc(N[C@H]3CC[C@@H](NCCCN4CCOCC4)CC3)cc12 [JX3226, (1s,4s)-N^1-(dibenzo[b,d]furan-2-yl)-N^4-(3-morpholinopropyl)cyclohexane-1,4-diamine]",,,,,,,,,86.98 ± 0.69%,19.5 ± 1.64 µM,3.35 ± 4.46%,6.91 ± 6.13%,94.03 ± 1.98%
"c1ccc2c(c1)oc1ccc(NC34C[C@@H]5C[C@@H](CC(NCCCN6CCOCC6)(C5)C3)C4)cc12 [JX3227, (1s,3r,5R,7S)-N^1-(dibenzo[b,d]furan-2-yl)-N^3-(3-morpholinopropyl)adamantane-1,3-diamine]",,,,,,,,,64.42 ± 3.05%,> 50 µM,9.02 ± 5.70%,7.11 ± 1.17%,88.04 ± 4.11%
"c1ccc2c(c1)oc1ccc(NC3CC4(CCN(CCCN5CCOCC5)CC4)C3)cc12 [JX3228, N-(dibenzo[b,d]furan-2-yl)-7-(3-morpholinopropyl)-7-azaspiro[3.5]nonan-2-amine]",11.2 ± 0.74 µM,,,18.4 ± 3.79%,0.88 ± 2.32%,73 ± 3.72%,17.1 ± 6.3%,,,,,,
"c1ccc2c(c1)oc1ccc(N3CCC4(CC3)CN(CCCN3CCOCC3)C4)cc12 [JX3229, 4-(3-(7-(dibenzo[b,d]furan-2-yl)-2,7-diazaspiro[3.5]nonan-2-yl)propyl)morpholine]",29.5 ± 1.09 µM,,,,,26.8 ± 9.64%,4.9 ± 7.34%,,,,,,
"c1ccc2c(c1)oc1ccc(N3CCC4(CCN(CCCN5CCOCC5)CC4)CC3)cc12 [JX3230, 4-(3-(9-(dibenzo[b,d]furan-2-yl)-3,9-diazaspiro[5.5]undecan-3-yl)propyl)morpholine]",> 50 µM,,,,,63.3 ± 6.48%,15.6 ± 0.73%,,,,,,
"c1ccc2c(c1)oc1ccc(Nc3ccnc(OCCCN4CCOCC4)n3)cc12 [JX3231, N-(dibenzo[b,d]furan-2-yl)-2-(3-morpholinopropoxy)pyrimidin-4-amine]",19.7 ± 0.5 µM,,,7.39 ± 3.45%,4.14 ± 5.52%,96.3 ± 1.23%,90.5 ± 2.35%,,,,,,
"CN(CCCN1CCOCC1)c1nccc(Nc2ccc3oc4ccccc4c3c2)n1 [JX3232, N^4-(dibenzo[b,d]furan-2-yl)-N^2-methyl-N^2-(3-morpholinopropyl)pyrimidine-2,4-diamine]",6.77 ± 0.68 µM,,,6.81 ± 4.5%,-2.25 ± 0.47%,96.94 ± 0.69%,93.2 ± 1.48%,,,,,,
"CC(CNc1nccc(Nc2ccc3oc4ccccc4c3c2)n1)CN1CCOCC1 (centres unmarked) [JX3233, N^4-(dibenzo[b,d]furan-2-yl)-N^2-(2-methyl-3-morpholinopropyl)pyrimidine-2,4-diamine]",10.44 ± 0.01 µM,,,4.34 ± 8.43%,2.58 ± 3.95%,92.2 ± 1.15%,97.2 ± 1.69%,,,,,,
"OC(CNc1nccc(Nc2ccc3oc4ccccc4c3c2)n1)CN1CCOCC1 (centres unmarked) [JX3234, 1-((4-(dibenzo[b,d]furan-2-ylamino)pyrimidin-2-yl)amino)-3-morpholinopropan-2-ol]",17.1 ± 0.83 µM,,,11.2 ± 5.26%,5.91 ± 6.31%,94.83 ± 0.75%,88.4 ± 2.42%,,,,,,
